Results: article PMC7113892 (Antiviral Research, 2017)

Legend:
[1] = biological target: DENV-2 NS5-RdRp (Dengue virus type 2, UniProt P14340); assay type: biochemical; conditions: 50 μM
[2] = biological target: human RNA N7-methyltransferase (RNMT) (Homo sapiens, UniProt O43148); experiment: biochemical
Sequence of human RNA N7-methyltransferase (RNMT) (O43148 whole entry, looked up): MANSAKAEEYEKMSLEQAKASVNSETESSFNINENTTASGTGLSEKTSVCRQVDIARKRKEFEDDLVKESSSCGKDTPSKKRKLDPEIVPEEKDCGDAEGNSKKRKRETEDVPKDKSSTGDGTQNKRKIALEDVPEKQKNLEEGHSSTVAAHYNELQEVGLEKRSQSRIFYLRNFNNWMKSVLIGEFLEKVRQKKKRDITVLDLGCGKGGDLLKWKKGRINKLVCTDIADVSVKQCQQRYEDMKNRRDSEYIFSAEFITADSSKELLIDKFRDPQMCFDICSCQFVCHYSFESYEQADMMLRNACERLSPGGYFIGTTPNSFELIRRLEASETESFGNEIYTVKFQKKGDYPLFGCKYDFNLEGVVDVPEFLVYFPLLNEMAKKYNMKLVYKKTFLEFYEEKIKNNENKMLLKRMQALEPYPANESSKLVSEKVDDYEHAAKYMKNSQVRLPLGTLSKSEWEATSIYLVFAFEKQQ

Nc1ncnc2c1ncn2[C@@H]1O[C@H](C[C@@H](N)CC[C@H](N)C(=O)O)[C@@H](O)[C@H]1O [Sinefungin]
Inhibition of RdRp activity of DENV NS5 (in words) [1]: no inhibition detected | IC50 [2]: < 50 nM
